Values joined by “and” are separate entries in the source; they are usually repeats but may differ in a detail not shown here. Equal entries are not always repeated. Toxic doses and inconclusive results are not listed. Rule as the data show it: active = T/C of 150% or more; inactive = T/C below 125%.
Tested on: L1210 leukemia ip in BDF1 mice, survival T/C
Test: NCI In Vivo Anticancer Drug Screen. Data for tumor model L1210 Leukemia (intraperitoneal) in B6D2F1 (BDF1) mice
Settings: endpoint: mean survival time, higher = longer survival
Method in brief: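 Tumor cells were implanted, animals were treated, and survival was followed. The result divides the treated measurement by the vehicle-control measurement.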

[1] = dose: 100.0 mg/kg/injection, schedule: Q04DX003 (ip), vehicle: Klucel (hydroxypropylcellulose) (HPC)
[2] = dose: 200.0 mg/kg/injection, schedule: Q04DX003 (ip), vehicle: Klucel (hydroxypropylcellulose) (HPC)
[3] = dose: 400.0 mg/kg/injection, schedule: Q04DX003 (ip), vehicle: Klucel (hydroxypropylcellulose) (HPC)
[4] = dose: 100.0 mg/kg/injection, schedule: Q01DX001 (ip), vehicle: carboxymethylcellulose (CMC)
[5] = dose: 200.0 mg/kg/injection, schedule: Q01DX001 (ip), vehicle: carboxymethylcellulose (CMC)
[6] = dose: 400.0 mg/kg/injection, schedule: Q01DX001 (ip), vehicle: carboxymethylcellulose (CMC)
[7] = dose: 50.0 mg/kg/injection, schedule: Q01DX009 (ip), vehicle: water
[8] = dose: 100.0 mg/kg/injection, schedule: Q01DX009 (ip), vehicle: water
[9] = dose: 100.0 mg/kg/injection, schedule: Q01DX009 (ip), vehicle: Klucel (hydroxypropylcellulose) (HPC)
[10] = dose: 200.0 mg/kg/injection, schedule: Q01DX009 (ip), vehicle: Klucel (hydroxypropylcellulose) (HPC)
[11] = dose: 400.0 mg/kg/injection, schedule: Q01DX009 (ip), vehicle: Klucel (hydroxypropylcellulose) (HPC)

Measured: T/C

CSCCCN
inactive: dose: 100.0 mg/kg/injection, schedule: Q01DX009 (ip), vehicle: saline 99 % of control | dose: 100.0 mg/kg/injection, schedule: Q04DX003 (ip), vehicle: saline 102 % of control | dose: 200.0 mg/kg/injection, schedule: Q01DX009 (ip), vehicle: saline 95 % of control | dose: 200.0 mg/kg/injection, schedule: Q04DX003 (ip), vehicle: saline 104 % of control | dose: 400.0 mg/kg/injection, schedule: Q01DX009 (ip), vehicle: saline 95 % of control | dose: 400.0 mg/kg/injection, schedule: Q04DX003 (ip), vehicle: saline 96 % of control

CCc1ccc(N=C/C=C/c2ccccc2)cc1
inactive: dose: 25.0 mg/kg/injection, schedule: Q01DX009 (ip), vehicle: other 98 % of control | dose: 50.0 mg/kg/injection, schedule: Q01DX009 (ip), vehicle: other 98 % of control | dose: 100.0 mg/kg/injection, schedule: Q01DX009 (ip), vehicle: other 98 % of control and 110 % of control

O=C(O)/C=C/C(=O)Nc1cc(Cl)cc2c1-c1c(Cl)cc(Cl)cc1C2O (stereo unspecified)
inactive: [1] 98 % of control | [2] 92 % of control | [3] 108 % of control

OC12CC(C(F)(F)F)(C(F)(F)F)OC1(O)CC(C(F)(F)F)(C(F)(F)F)O2 (stereo unspecified)
inactive: dose: 100.0 mg/kg/injection, schedule: Q04DX003 (ip), vehicle: saline with Tween-80 94 % of control | dose: 200.0 mg/kg/injection, schedule: Q04DX003 (ip), vehicle: saline with Tween-80 89 % of control

CC(=O)C1(C)OC(c2ccccc2)=NC1=O (stereo unspecified)
inactive: dose: 100.0 mg/kg/injection, schedule: Q01DX001 (ip), vehicle: saline 104 % of control | dose: 200.0 mg/kg/injection, schedule: Q01DX001 (ip), vehicle: saline 93 % of control | dose: 400.0 mg/kg/injection, schedule: Q01DX001 (ip), vehicle: saline 115 % of control

O=C(/C=C/c1ccc2c(c1)OCO2)c1ccc(Cl)cc1
inactive: dose: 50.0 mg/kg/injection, schedule: Q01DX009 (ip), vehicle: saline with Tween-80 97 % of control | dose: 100.0 mg/kg/injection, schedule: Q01DX009 (ip), vehicle: saline with Tween-80 95 % of control | dose: 200.0 mg/kg/injection, schedule: Q01DX009 (ip), vehicle: saline with Tween-80 96 % of control

S=C(S)NC1c2ccccc2-c2ccccc21 (tested in a mixture with another compound)
inactive: [4] 94 % of control | [5] 90 % of control | [6] 96 % of control

CC(=O)n1ncc2ccc(N)cc21
inactive: dose: 25.0 mg/kg/injection, schedule: Q01DX009 (ip), vehicle: water 89 % of control | [7] 101 % of control | [8] 96 % of control | dose: 100.0 mg/kg/injection, schedule: Q04DX003 (ip), vehicle: water 100 % of control | dose: 200.0 mg/kg/injection, schedule: Q04DX003 (ip), vehicle: water 96 % of control

CC(=O)OC1CC2C(CCC3(C)C(C(C)=O)CCC23)C2(C)CCC(O)C=C12 (stereo unspecified)
inactive: dose: 75.0 mg/kg/injection, schedule: Q01DX001 (ip), vehicle: other 101 % of control | dose: 150.0 mg/kg/injection, schedule: Q01DX001 (ip), vehicle: other 98 % of control | dose: 300.0 mg/kg/injection, schedule: Q01DX001 (ip), vehicle: other 103 % of control

NC(=O)c1ccccc1NC(=O)Nc1ccccc1
inactive: [9] 98 % of control | [1] 102 % of control | [10] 94 % of control | [2] 96 % of control | [11] 89 % of control | [3] 94 % of control

CCOC(=O)N1C=Cn2c(cnc2C)C1OC (stereo unspecified)
inactive: [7] 93 % of control | [8] 98 % of control | dose: 200.0 mg/kg/injection, schedule: Q01DX009 (ip), vehicle: water 95 % of control and 86 % of control

COC(=O)/C=C(\C(=O)OC)N(C)c1ccccc1
inactive: dose: 50.0 mg/kg/injection, schedule: Q01DX001 (ip), vehicle: other 106 % of control

COc1ccc(C(C#N)N2CCCCC2)cc1 (stereo unspecified)
inactive: dose: 25.0 mg/kg/injection, schedule: Q01DX009 (ip), vehicle: Klucel (hydroxypropylcellulose) (HPC) 102 % of control | dose: 50.0 mg/kg/injection, schedule: Q01DX009 (ip), vehicle: Klucel (hydroxypropylcellulose) (HPC) 101 % of control | [1] 95 % of control | [2] 111 % of control | [3] 101 % of control

COC(/C=C\C(OC)OC)OC
inactive: dose: 12.5 mg/kg/injection, schedule: Q04DX003 (ip), vehicle: saline 106 % of control | dose: 25.0 mg/kg/injection, schedule: Q04DX003 (ip), vehicle: saline 101 % of control | dose: 50.0 mg/kg/injection, schedule: Q04DX003 (ip), vehicle: saline 101 % of control | [9] 98 % of control | [10] 96 % of control | [11] 96 % of control

NC(N)=NC(N)=NCCCCc1ccccc1
inactive: dose: 25.0 mg/kg/injection, schedule: Q04DX003 (ip), vehicle: Klucel (hydroxypropylcellulose) (HPC) 95 % of control | dose: 50.0 mg/kg/injection, schedule: Q04DX003 (ip), vehicle: Klucel (hydroxypropylcellulose) (HPC) 109 % of control | [1] 101 % of control

CC(C)CCCC(C)C1CCC2C3C(=O)C=C4CC(O)CCC4(C)C3CCC12C (stereo unspecified)
inactive: dose: 100.0 mg/kg/injection, schedule: Q01DX009 (sc), vehicle: steriod suspending solution 106 % of control | dose: 100.0 mg/kg/injection, schedule: Q04DX003 (sc), vehicle: steriod suspending solution 100 % of control | dose: 200.0 mg/kg/injection, schedule: Q01DX009 (sc), vehicle: steriod suspending solution 96 % of control | dose: 200.0 mg/kg/injection, schedule: Q04DX003 (sc), vehicle: steriod suspending solution 115 % of control | dose: 400.0 mg/kg/injection, schedule: Q01DX009 (sc), vehicle: steriod suspending solution 98 % of control | dose: 400.0 mg/kg/injection, schedule: Q04DX003 (sc), vehicle: steriod suspending solution 107 % of control

N#CCCNC(CO)C(=O)O (stereo unspecified)
inactive: [4] 94 % of control | [5] 92 % of control | [6] 89 % of control

C[N+](C)(C)C1CCCCCCC1
inactive: dose: 75.0 mg/kg/injection, schedule: Q01DX001 (ip), vehicle: saline 96 % of control | dose: 150.0 mg/kg/injection, schedule: Q01DX001 (ip), vehicle: saline 108 % of control

O=C(NCCCCCCCCCCNC(=O)C(Cl)Cl)C(Cl)Cl
inactive: [1] 98 % of control | [2] 90 % of control | [3] 105 % of control

COc1ccccc1C(=O)N/N=C/c1ccncc1
inactive: [9] 94 % of control | [10] 94 % of control | [11] 97 % of control

Cc1ccc(S(=O)(=O)N(C)c2ccc(N)cc2)cc1
inactive: [4] 102 % of control | [5] 96 % of control | [6] 91 % of control

CCS(=O)(=O)CCOC(=O)c1ccc([N+](=O)[O-])cc1
inactive: [4] 100 % of control | [5] 105 % of control | [6] 98 % of control

NNc1ccccc1C(=O)O
inactive: dose: 50.0 mg/kg/injection, schedule: Q01DX001 (ip), vehicle: carboxymethylcellulose (CMC) 94 % of control | [4] 94 % of control | [5] 105 % of control | [6] 94 % of control

N#CSCc1ccc(Cl)cc1
inactive: dose: 25.0 mg/kg/injection, schedule: Q01DX009 (ip), vehicle: saline with Tween-80 92 % of control

c1ccc(-c2nc3ccccc3c3ccccc23)cc1
inactive: [1] 101 % of control | [2] 103 % of control | [3] 106 % of control

O=C(O)C1CCC(SSC2CCC(C(=O)O)CC2[N+](=O)[O-])C([N+](=O)[O-])C1 (stereo unspecified)
inactive: dose: 100.0 mg/kg/injection, schedule: Q04DX002 (ip), vehicle: saline with Tween-80 95 % of control | dose: 200.0 mg/kg/injection, schedule: Q04DX002 (ip), vehicle: saline with Tween-80 103 % of control | dose: 400.0 mg/kg/injection, schedule: Q04DX002 (ip), vehicle: saline with Tween-80 103 % of control

Cc1ccc(S(=O)(=O)N(C)c2ccc3cc(C(=O)O)ccc3c2)cc1
inactive: [9] 94 % of control | [1] 102 % of control | [10] 95 % of control | [2] 106 % of control | [11] 94 % of control | [3] 90 % of control

Nc1nc(N)c(C=Nc2ccc(I)cc2)c(Nc2ccc(I)cc2)n1
inactive: dose: 400.0 mg/kg/injection, schedule: Q01DX001 (ip), vehicle: alcohol 86 % of control

Source: PubChem BioAssay AID248 (DTP/NCI, 2004)
